From PubChem BioAssay AID449762 (Southern Research Specialized Biocontainment Screening …, 2010)
Results filed as inconclusive are left out.

The compounds below were run on M. tuberculosis H37Rv growth inhibition, 7H9 media (assay: M. tuberculosis growth inhibition, HTS (AID 449762;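 also: bacterial growth assessed after seven days of incubation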)). Settings: not given.

Row | Structure (SMILES) | IC50
1 | COc1ccc(-c2oc3ccc(-c4ccc(OC)nc4)cc3c2C#CC2(O)CCCCC2)cc1 | 96.2 µM
2 | Cc1ccc(-c2noc(=O)n2CC(=O)c2ccc(Cl)cc2)cc1 | 44.3 µM
3 | C#CCOCCOCCOCCNc1nc(N2CCN(C(=O)C(Cc3ccc(O)cc3)n3cc(C(N)CC(C)C)nn3)CC2)nc(N2CCN(C(=O)C(Cc3cc4ccccc4[nH]3)n3cc(C(N)Cc4ccc(O)cc4)nn3)CC2)n1 (centres undefined) | 6.03 µM
4 | Cc1ccc(OC(=O)CCN2C(=O)c3ccccc3C2=O)cc1C | 28.6 µM
5 | CCCC(=O)Nc1ccc(C(=O)/C=C/c2ccc(SC)cc2)cc1 | 22.9 µM
6 | C=C(C)CSc1cc(C)c(C#N)c2nc3ccccc3n12 | 34.3 µM
7 | Cc1cc(/C=N\NC(=O)c2cccs2)c(C)n1-c1ccc2ncccc2c1 | 12.1 µM
8 | CCOc1cc(C=O)cc(N=Nc2cccc([N+](=O)[O-])c2)c1O | 3.98 µM
9 | CCCc1ccc(C2=Nn3c(nnc3C(C)C)SC2)cc1 | 18.7 µM
10 | COC(=O)c1ccc(CSc2nc(C(F)(F)F)c3c(c2C#N)CCC3)o1 | 47.1 µM
11 | Cc1cc(C)c(CSc2ncc(-c3ccc([N+](=O)[O-])cc3)[nH]2)c(C)c1 | 42.5 µM
12 | CSc1nsc(/C=C/Nc2ccc(O)cc2C)c1C#N | 27 µM
13 | Cc1ccc(-c2cccc(NC(=O)C3C4C=CC(C4)C3C(=O)O)c2)o1 (centres undefined) | 74.2 µM
14 | CCOc1ccc(N2CC(=O)Nc3ccccc3NCC2=O)cc1 | 52.7 µM
15 | CCOC(=O)c1sc2nc(C)nc(SC(C)C(=O)N(C)c3ccccc3)c2c1C (centres undefined) | 35.1 µM
16 | N#Cc1cccc2c1-c1ccccc1/C2=N/NC(N)=O | 93.9 µM
17 | CC(NC(=O)c1ccccc1Br)C1CC2CCC1C2 (centres undefined) | 21 µM
18 | CCOc1cc(NC(=O)CCl)c(OCC)cc1NC(C)=O | < 0.2 µM
19 | COc1ccc(COC(=O)CCNC(=O)c2ccc(Cl)cc2)cc1 | 58.7 µM
20 | Nc1ccc(S(=O)(=O)Nc2cnc3ccccc3n2)cc1 | 26.4 µM
21 | Cc1cc(NC(=O)c2sccc2C)n(-c2nc3ccccc3[nH]2)n1 | 2.94 µM

Row | Structure (SMILES) | IC50
22 | C(=C\c1nccc2c1[nH]c1ccccc12)/c1ccccc1 | 28.5 µM
23 | N#CC(C(=O)NCc1ccco1)c1nc2ccccc2nc1N1CCOCC1 (centres undefined) | 43 µM
24 | Cc1ccc(/C(N)=N/OC(=O)N2c3ccccc3Sc3ccccc32)cc1 | 52.4 µM
25 | O=C(O)c1ccc(N2C(=O)/C(=C/c3ccc(-c4ccc([N+](=O)[O-])cc4)o3)C=C2c2ccccc2)cc1 | 17.2 µM
26 | O=c1[nH][nH]c(-c2ccccc2O)c1C(C[N+](=O)[O-])c1cccc(Cl)c1 (centres undefined) | 74.6 µM
27 | O=c1[nH]c(=O)n(Cc2ccccc2)c2nc(-c3ccc(Oc4ccc(F)cc4)c([N+](=O)[O-])c3)n(CCO)c12 | 24.4 µM
28 | Cn1c2ccccc2c2cc(C(=O)NNC(=O)CCl)sc21 | 1.72 µM
29 | O=S1(=O)CCC(N=Cc2ccc(-c3ccc(Cl)cc3)o2)C1 (centres undefined) | 54.8 µM
30 | CN(C)CCCN(C(=O)c1cc(-c2cccs2)nc2ccccc12)c1nc2ccc(F)cc2s1 | 41 µM
31 | O=C(Nc1nnc(-c2ccccc2Cl)o1)c1nc2ccccc2s1 | 6.01 µM
32 | O=c1cc(CCl)nc(Cc2c(Cl)cccc2Cl)[nH]1 | 0.51 µM
33 | O=C1N[C@@H](Cc2ccccc2)C(=O)N2[C@H]3Nc4ccccc4[C@@]3([C@]34C[C@H]5C(=O)N[C@@H](Cc6ccccc6)C(=O)N5[C@H]3Nc3ccccc34)C[C@@H]12 | 79.1 µM
34 | Cc1ccnc(N2CCC(C(=O)Nc3cccc(C(F)(F)F)c3)CC2)n1 | 47.5 µM
35 | Cc1ccc(NC(=O)COc2ccccc2CNC(C)(C)CC(C)(C)C)cc1 | 22.6 µM
36 | COc1cccc(-c2cnc(NCc3cc(Cl)ccc3O)n2C)c1 | 19.1 µM
37 | CC(C)c1ccc(N2C(=O)NC(=O)/C(=C\C=C\c3ccco3)C2=O)cc1 | 22.1 µM
38 | COc1ccc(NC(=O)c2oc3ccc(S(=O)(=O)N4CCOCC4)cc3c2C)cc1 | 0.68 µM
39 | CCN(Cc1ccccc1)c1ccc(/C=N/N=C(N)N)cc1 | 17.1 µM
40 | COc1ccc(C2Oc3ccccc3C3=C2C(c2cccs2)n2ncnc2N3)cc1 (centres undefined) | 51.2 µM
41 | COc1ccc(-c2oc(NC(=O)CCl)c(C#N)c2-c2ccc(OC)cc2)cc1 | 12.5 µM
42 | Cc1c(Cl)ccc2c1NC(=O)[C@]21N[C@@H](Cc2ccccc2)[C@H]2C(=O)N(c3ccc(F)cc3)C(=O)[C@H]21 | 23 µM

Row | Structure (SMILES) | IC50
43 | Cc1cc(C)c2c(CN3CCN(Cc4ccccc4)CC3)cc(=O)oc2c1C | 49.1 µM
44 | COc1cc(C)ccc1S(=O)(=O)N1CCN(C23CC4CC(CC(C4)C2)C3)CC1 | 28.8 µM
45 | CC(C)c1nnc(NC(=O)CCC(=O)N2CCN(c3ccc(Cl)cc3)CC2)s1 | 11.8 µM
46 | Cc1nn(-c2ccccc2)c(N)c1C(c1ccc(C(C)C)cc1)c1c(C)nn(-c2ccccc2)c1N | 20.4 µM
47 | COc1ccccc1-c1cc(C(=O)NC2CCN(C)CC2)c2ccc(Cl)c(C)c2n1 | 70.9 µM
48 | Cc1cc(C)c2oc(-c3ccc(C)c(NC(=S)NC(=O)/C=C/c4ccco4)c3)nc2c1 | 59.8 µM
49 | COC(=O)c1cc(Sc2cccc(Cl)c2Cl)ccn1 | 20.6 µM
50 | CC(=O)O[C@H]1C[C@@]2(C)[C@@H](C[C@@H](O)[C@H]3[C@@]4(C)CC[C@@H](O)[C@@H](C)[C@@H]4CC[C@@]32C)/C1=C(\CCC=C(C)C)C(=O)O | 1.6 µM
51 | CCCCOC(=O)CCN1C(=O)/C(=C2\SC(=S)N(CCC(=O)OCCCC)C2=O)SC1=S | 2.98 µM
52 | O=C(NNC(=O)C12CC3CC(CC(C3)C1)C2)c1ccccn1 | 5.36 µM
53 | c1ccc(Cn2c3ccccc3c3nnc(SCCN4CCCCC4)nc32)cc1 | 21.3 µM
54 | Oc1ccc(/C=N/NC(=S)N2CCOCC2)cc1 | 4.2 µM
55 | Cc1cc(-c2n[nH]c(=S)n2/N=C/C(Br)=C/c2ccccc2)n[nH]1 | 2.08 µM
56 | CCc1ccc(-c2cc(C)no2)cc1S(=O)(=O)NCCCN1CCN(c2ccccc2)CC1 | 34.7 µM
57 | NN(Cc1ccccc1)C(=S)Nc1ccc(Cl)c(Cl)c1 | 33.8 µM
58 | CCCCCCCNC(=O)C1(CC2CC(c3cccc(Br)c3)=NO2)CCNCC1 (centres undefined) | 42 µM
59 | CCN(CC)c1ccc2nc3ccccc3[n+](CC)c2c1 | 2.71 µM
60 | Cc1ccc(NC(=O)c2ccc(CSc3nnc(C)s3)cc2)c(C)c1 | 17.4 µM
61 | Cc1ccc(-c2ccc(/C=N/c3ncn[nH]3)o2)cc1Cl | 98.8 µM
62 | COc1ccc(/C=N/Nc2nncn2N)cc1Br | 10.8 µM
63 | O=[N+]([O-])c1ccc(O)c(-c2cc(C(F)(F)F)nc(-c3ccccc3)n2)c1 | 22.2 µM

Row | Structure (SMILES) | IC50
64 | Nc1ccc(C(=O)OCCCc2nc3cc4ccccc4cc3[nH]2)cc1 | 45.6 µM
65 | O=C(O)/C=C/C(=O)Nc1ccc(-c2ccccc2)cc1 | 34.3 µM
66 | COc1ccc2nc(N=NC3=C(O)CC(C)(C)CC3=O)sc2c1 | 12.4 µM
67 | O=C(CN1CCN(c2ccccc2O)CC1)Nc1ccccc1C(=O)NCCc1ccccc1 | 44.3 µM
68 | CC(=O)c1ccc(N2CCC(c3cc(-c4ccc(Cl)cc4Cl)n[nH]3)CC2)c([N+](=O)[O-])c1 | 18.2 µM
69 | COc1ccccc1C1CC(c2ccc(Cl)cc2)Nc2ncnn21 (centres undefined) | 11 µM
70 | CCOC(=O)CN(C#N)c1nc(N(C)C)nc(N(C)C)n1 | 11.1 µM
71 | Cc1ccc2cc(C)c(N3CCN(c4ccccn4)CC3)nc2c1 | 29.7 µM
72 | CC1CN(C(=S)SCC(=O)c2ccc([N+](=O)[O-])cc2)CC(C)O1 (centres undefined) | 27 µM
73 | Cc1[nH]n(-c2ccccc2)c(=O)c1C(C[N+](=O)[O-])c1ccccc1Cl (centres undefined) | 6.99 µM
74 | Oc1ccc(-[n+]2c(-c3ccccc3)cc(-c3ccccc3)cc2-c2ccccc2)cc1 | 11.7 µM
75 | Cc1ccc2nc(=O)c(NNc3ccccc3)cnc2c1 | 16.5 µM
76 | COC(=O)[C@H](CC(C)C)NC(=O)c1cc2c(cn1)[nH]c1ccccc12 | 8.55 µM
77 | CC(CC(=O)Nc1ccc(Cl)c([N+](=O)[O-])c1)c1ccccc1 (centres undefined) | 16 µM
78 | CC[N+](C)(CC)CCCCOc1ccc2c(c1)C(=O)c1cc(OCCCC[N+](C)(CC)CC)ccc1-2 | 0.96 µM
79 | CCc1ccc(/C=C2/C(=O)N(C)C(=S)N2CC(=O)OC)s1 | 1.46 µM
80 | COC(=O)C(C)Oc1ccc(Cc2ncc(C(F)(F)F)cc2Cl)cc1 (centres undefined) | 2.43 µM
81 | CCN(CC)c1nc(NN)nc(Nc2ccc(C)c(Cl)c2)n1 | 2.85 µM
82 | CCc1noc(C)c1C(=O)Nc1nc(-c2ccc(F)cc2)c(C)s1 | 8.8 µM
83 | Cc1sc2ncnc(Oc3ccc(-n4ccnc4)cc3)c2c1C | 33.3 µM

Same assay, conditions: measured here: IC90 growth inhibition

Row | Structure (SMILES) | IC90
84 | COc1ccc(-c2oc3ccc(-c4ccc(OC)nc4)cc3c2C#CC2(O)CCCCC2)cc1 | > 100 µM
